Data on one compound can be found in US5726316A, “Pharmaceutical compositions for prevention and treatment of central nervous system disorders” (priority 1997, dated 1998).

The structures appear in SMILES notation.

Assay [1] concerns the target T1, muscle-like nicotinic receptors (human clonal line TE671/RD) (Homo sapiens, UniProt P02708+P07510+Q07001).
T1 construct: Intact cells on dishes were used for functional studies; endogenous in cells; host or cells: TE671/RD (human embryonal rhabdomyosarcoma)
It counts as cell-based. Particulars: te671/rd cells.
Description: Dose-response curves were plotted and the concentration resulting in half maximal activation of specific ion flux through nicotinic receptors determined for human muscle and rat ganglionic preparations (EC50).
(§1) Intact cells on dishes were used for functional studies.
(§2) Specific ion efflux was determined as the difference in isotope efflux between total and non-specific efflux samples. Dose-response curves were plotted and the concentration resulting in half maximal activation of specific ion flux through nicotinic receptors determined for human muscle and rat ganglionic preparations (EC50).

Assay [2] has as its target T2, ganglionic-type neuronal nicotinic receptors (pheochromocytoma clonal line PC12) (Rattus norvegicus, UniProt P04757+P12392).
T2 construct: Intact cells on dishes were used for functional studies; endogenous in cells; host or cells: PC12 (rat pheochromocytoma)
Type of assay: cell-based. The conditions noted are these: pc12 cells.
Description: as §1, §2

Assay [3] deals with nicotinic receptors (L-[3H]nicotine binding, rat brain membrane preparations). Further details: species or system rat (Sprague-Dawley). Particulars: calculated from IC50 (Cheng et al.).
Description: Rats (Sprague-Dawley) were maintained on a 12 hour light/dark cycle and were allowed free access to water and food supplied by Wayne Lab Blox, Madison, Wis. Animals used in the present studies weighted 200 to 250 g. Brain membrane preparations were obtained from brain tissue of either males or females.
Rats were killed by decapitation following anesthesia with 70% CO2. Brains were removed and placed on an ice-cold platform. […] The resulting homogenate was centrifuged at 18,000×g for 20 min. and the resulting pellet was resuspended in 20 volumes of water. After 60 min. incubation at 4° C., a new pellet was collected by centrifugation at 18,000×g for 20 min. After resuspension in 10 volumes of buffer, a new final pellet was again collected by centrifugation at 18,000×g for 20 min. Prior to each centrifugation step, the suspension was incubated at 37° C. for 5 min. to promote hydrolysis of endogenous acetylcholine. The final pellet was overlayed with buffer and stoerd at -70° C. On the day of the assay, that pellet was thawed, resuspended in buffer and centrifuged at 18,000×g for 20 min. The pellet obtained was resuspended in buffer to a final concentration of approximately 5 mg protein/ml.
The binding of L-[^3 H]nicotine was measured using a 2 hr. incubation at 4° C. […] Nonspecific binding was determined by inclusion of 10 uM nonradioactive nicotine in the incubations.
The test system of assay [4] is synaptosomes from the striatal area of rat brain. The assay can be described thus: Dopamine release from striatal synaptosomes. The conditions noted are these: relative to (S)-(-)-nicotine. Type of assay: biochemical, rat (Sprague-Dawley). As to the method: Dopamine release was measured by preparing synaptosomes from the striatal area of rat brain obtained from Sprague-Dawley rats generally according to the procedures set forth by Nagy et al., J. Neurochem., Vol. 43, pp. 1114-1123 (1984). Striata from 4 rats were homogenized in 2 ml of 0.32M sucrose buffered with 5 mM HEPES (pH 7.5), using a glass-Teflon tissue grinder. The homogenate was diluted to 5 ml with additional homogenization solution and centrifuged at 1,000×g for 10 min. This procedure was repeated on the new pellet and the resulting supernatant was centrifuged at 12,000×g for 20 min. A 3 layer discontinuous Percoll gradient consisting of 16 percent, 10 percent and 7.5 percent Percoll in HEPES-buffered sucrose was made with the final pellet dispersed in the top layer. […] Using this method, 30 to 90 percent of the dopamine was taken up into the synaptosomes, as determined by scintillation counting following filtration through glass fiber filters soaked with 0.5 percent polyethyleneimine. […] After the addition of 0.2 ml of a solution containing various concentrations of ligand, the perfusate was collected into scintillation vials at 1 min. intervals and the dopamine release was quantified by scintillation counting. Peaks of radioactivity released above background were summed and the average basal release during that time was substracted from the total.

T2 sequence (P04757 26-499): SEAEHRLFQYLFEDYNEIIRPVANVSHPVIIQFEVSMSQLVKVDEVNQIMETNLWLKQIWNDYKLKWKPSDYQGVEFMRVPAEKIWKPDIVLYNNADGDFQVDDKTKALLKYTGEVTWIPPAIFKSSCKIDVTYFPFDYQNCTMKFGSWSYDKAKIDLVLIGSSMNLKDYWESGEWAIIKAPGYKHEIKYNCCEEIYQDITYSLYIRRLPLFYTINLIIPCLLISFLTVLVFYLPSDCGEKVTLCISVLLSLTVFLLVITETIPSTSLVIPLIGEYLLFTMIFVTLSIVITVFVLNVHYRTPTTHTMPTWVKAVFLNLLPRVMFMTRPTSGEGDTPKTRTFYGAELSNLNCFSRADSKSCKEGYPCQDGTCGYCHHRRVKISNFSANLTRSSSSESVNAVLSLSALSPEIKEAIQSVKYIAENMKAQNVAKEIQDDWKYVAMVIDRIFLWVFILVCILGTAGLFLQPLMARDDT
T2 sequence (P12392 21-495): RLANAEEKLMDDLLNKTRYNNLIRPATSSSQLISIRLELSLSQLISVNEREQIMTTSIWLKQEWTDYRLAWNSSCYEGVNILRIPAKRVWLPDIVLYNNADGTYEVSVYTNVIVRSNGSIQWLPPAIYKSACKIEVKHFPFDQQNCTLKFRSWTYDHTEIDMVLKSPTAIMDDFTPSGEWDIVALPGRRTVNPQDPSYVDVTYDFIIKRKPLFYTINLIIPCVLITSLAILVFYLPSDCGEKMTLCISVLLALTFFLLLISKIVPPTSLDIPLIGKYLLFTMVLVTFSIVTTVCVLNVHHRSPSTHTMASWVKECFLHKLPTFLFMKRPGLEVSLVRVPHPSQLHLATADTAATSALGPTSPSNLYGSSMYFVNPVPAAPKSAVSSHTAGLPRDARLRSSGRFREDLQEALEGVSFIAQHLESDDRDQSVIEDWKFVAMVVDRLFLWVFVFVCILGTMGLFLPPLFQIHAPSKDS
T1 sequence (P02708 21-457): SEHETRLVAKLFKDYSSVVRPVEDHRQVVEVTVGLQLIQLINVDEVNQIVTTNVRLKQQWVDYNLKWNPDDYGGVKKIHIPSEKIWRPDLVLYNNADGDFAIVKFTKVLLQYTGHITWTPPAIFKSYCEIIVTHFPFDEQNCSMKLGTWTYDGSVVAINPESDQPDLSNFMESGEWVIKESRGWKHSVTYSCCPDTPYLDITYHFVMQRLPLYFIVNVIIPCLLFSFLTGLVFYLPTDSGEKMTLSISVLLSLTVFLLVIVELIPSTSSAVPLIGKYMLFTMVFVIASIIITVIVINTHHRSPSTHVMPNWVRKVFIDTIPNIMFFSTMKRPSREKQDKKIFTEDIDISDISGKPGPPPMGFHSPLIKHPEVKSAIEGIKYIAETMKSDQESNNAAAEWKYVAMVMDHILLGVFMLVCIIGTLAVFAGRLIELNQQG
T1 sequence (Q07001 22-517): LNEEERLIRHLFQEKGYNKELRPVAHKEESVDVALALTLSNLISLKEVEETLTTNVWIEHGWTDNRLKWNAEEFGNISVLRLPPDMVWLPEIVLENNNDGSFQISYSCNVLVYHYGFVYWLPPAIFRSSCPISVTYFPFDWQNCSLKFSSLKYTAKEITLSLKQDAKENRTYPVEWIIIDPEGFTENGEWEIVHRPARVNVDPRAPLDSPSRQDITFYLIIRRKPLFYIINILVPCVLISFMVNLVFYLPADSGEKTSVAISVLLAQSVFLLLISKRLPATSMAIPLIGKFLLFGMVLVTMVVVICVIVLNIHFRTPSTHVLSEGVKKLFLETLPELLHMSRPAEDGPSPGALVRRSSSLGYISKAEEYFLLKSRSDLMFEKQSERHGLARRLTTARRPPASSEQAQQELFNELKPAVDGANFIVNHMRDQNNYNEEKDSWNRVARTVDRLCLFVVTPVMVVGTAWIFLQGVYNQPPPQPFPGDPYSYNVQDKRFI
T1 sequence (P07510 23-517): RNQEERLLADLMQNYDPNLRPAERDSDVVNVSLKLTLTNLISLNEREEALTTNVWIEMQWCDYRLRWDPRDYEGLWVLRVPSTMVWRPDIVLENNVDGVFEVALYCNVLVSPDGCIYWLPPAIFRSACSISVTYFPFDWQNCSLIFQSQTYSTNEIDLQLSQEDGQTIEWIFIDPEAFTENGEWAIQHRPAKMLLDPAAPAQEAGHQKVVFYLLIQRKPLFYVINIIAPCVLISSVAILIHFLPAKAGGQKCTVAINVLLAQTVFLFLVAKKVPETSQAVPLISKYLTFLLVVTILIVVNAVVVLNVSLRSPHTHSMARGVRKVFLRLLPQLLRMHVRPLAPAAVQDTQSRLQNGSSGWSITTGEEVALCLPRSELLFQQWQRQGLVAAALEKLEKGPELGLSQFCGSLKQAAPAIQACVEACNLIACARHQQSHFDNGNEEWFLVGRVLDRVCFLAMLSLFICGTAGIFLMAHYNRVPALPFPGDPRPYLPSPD

Take `CNCCCCc1cccnc1` [Sample No. 7, N-methyl-(3-pyridinyl)-buane-1-amine]: the “Muscle Effect” value in assay [1] amounted to 0 % nicotine. Besides, in assay [2], the “Ganglion Effect” value worked out at 31 % nicotine. For the same compound, the Ki (usually the equilibrium dissociation constant of an inhibitor or competing ligand from its target) in assay [3] was 910 nM. For the same compound, the “Dopamine Release Emax” value in assay [4] is listed as 72 % nicotine.
